In brackets after ≈: the same amount, converted by molar mass. Where only a bound is given, the exact number is not on record here.

The term MIC denotes the least concentration at which growth counts as inhibited.

What all share (test): ≥ marks a high value that may be exact or a test limit, other limits are often not marked, values filed in µg/mL are converted to µM
Assay [1] relates to Escherichia coli ATCC 25922.
The subject of a further assay is Escherichia coli.
Assay [2] concerns Staphylococcus aureus ATCC 29213.
In assay [3] the test system is Pseudomonas aeruginosa ATCC 27853.
The test system of assay [4] is Staphylococcus aureus ATCC 25923.
Another assay concerns Staphylococcus aureus.
The test system of assay [5] is Enterococcus faecalis ATCC 29212.

For the compound `CC(C)C[C@H](NC(=O)[C@H](CCCCN)NC(=O)[C@H](CC(C)C)NC(=O)[C@H](CC(C)C)NC(=O)[C@H](CCCCN)NC(=O)[C@H](CCCCN)NC(=O)[C@@H]1CSSC[C@H](N)C(=O)N[C@@H](CCCCN)C(=O)N[C@@H](CCCCN)C(=O)N[C@@H](CC(C)C)C(=O)N[C@@H](CC(C)C)C(=O)N[C@@H](CCCCN)C(=O)N[C@@H](CC(C)C)C(=O)N1)C(=O)N[C@@H](C)C(=O)NCC(=O)O` [CKKLLKLCKKLLKLAG], the MIC was 10 µM (≈ 18 µg/mL) in assay [1], 40 µM (≈ 71.9 µg/mL) in the assay with Escherichia coli and greater than 40 µM in assay [2].
For the compound `C[C@H](NC(=O)[C@H](Cc1ccccc1)NC(=O)[C@H](CCCCN)NC(=O)[C@H](CCCCN)NC(=O)[C@H](C)NC(=O)[C@@H](N)Cc1ccccc1)C(=O)N[C@@H](CCCCN)C(=O)N[C@@H](CCCCN)C(=O)N[C@@H](Cc1ccccc1)C(=O)N[C@@H](CCCCN)C(N)=O` [FAKKFAKKFK], the MIC in assay [3], in assay [1] and in assay [4] was 193 µM (≈ 240 µg/mL) throughout.
For the compound `CC[C@H](C)[C@H](NC(=O)[C@H](CCCN=C(N)N)NC(=O)[C@H](CCC(N)=O)NC(=O)[C@@H](NC(=O)[C@@H](NC(=O)[C@H](CCCN=C(N)N)NC(=O)[C@H](CCCCN)NC(=O)[C@@H](N)Cc1ccccc1)[C@@H](C)CC)C(C)C)C(=O)N[C@@H](CCCCN)C(=O)N[C@@H](CC(=O)O)C(=O)NCC(=O)N[C@@H](CC(C)C)C(=O)N[C@@H](CCCN=C(N)N)C(=O)O` [FKRIVQRIKDGLR], the MIC was 20 µM (≈ 32.6 µg/mL) in assay [1] and greater than 40 µM in assay [2].
For `CC[C@H](C)[C@H](NC(=O)[C@H](CCCCN)NC(=O)[C@H](CC(C)C)NC(=O)[C@H](C)NC(=O)[C@H](CCCCN)NC(=O)CNC(=O)[C@H](CC(C)C)NC(=O)[C@H](CC(C)C)NC(=O)[C@H](CO)NC(=O)CNC(=O)[C@H](Cc1ccccc1)NC(=O)CN)C(=O)NCC(=O)N[C@H](C(=O)N[C@@H](CC(N)=O)C(=O)N[C@@H](CC(C)C)C(=O)N[C@@H](CC(C)C)C(N)=O)[C@@H](C)O` [GFGSLLGKALKIGTNLL], the MIC in the assay on Escherichia coli amounted to 25 µM (≈ 42.5 µg/mL); with Staphylococcus aureus, 6 µM (≈ 10.2 µg/mL).
Take `CC[C@H](C)[C@H](NC(=O)CN)C(=O)NCC(=O)N[C@@H](CCCCN)C(=O)N[C@@H](CC(C)C)C(=O)N[C@@H](Cc1ccccc1)C(=O)N[C@@H](CC(C)C)C(=O)N[C@@H](Cc1cnc[nH]1)C(=O)N[C@@H](C)C(=O)N[C@@H](C)C(=O)N[C@@H](CCCCN)C(=O)N[C@@H](CCCCN)C(=O)N[C@@H](Cc1ccccc1)C(=O)N[C@@H](C)C(=O)N[C@@H](CCCCN)C(=O)N[C@@H](C)C(=O)N[C@@H](Cc1ccccc1)C(=O)N[C@H](C(=O)N[C@@H](C)C(=O)N[C@@H](CCC(=O)O)C(=O)N[C@@H](CCCCN)C(=O)N[C@@H](CCSC)C(=O)N[C@@H](CC(N)=O)C(=O)N[C@@H](CO)C(=O)O)C(C)C` [GIGKLFLHAAKKFAKAFVAEKMNS]: in assay [2], the MIC came to 38.4 µM (≈ 100 µg/mL).
Take `CC[C@H](C)[C@H](NC(=O)CN)C(=O)NCC(=O)N[C@@H](CO)C(=O)N[C@@H](CC(C)C)C(=O)N[C@@H](CC(C)C)C(=O)N[C@@H](C)C(=O)N[C@@H](CCCCN)C(=O)N[C@@H](C)C(=O)N[C@@H](C)C(=O)N[C@@H](CCCCN)C(=O)N[C@@H](CC(C)C)C(=O)NCC(=O)N[C@@H](C)C(=O)N[C@@H](CC(N)=O)C(=O)N[C@@H](CC(C)C)C(=O)N[C@@H](CC(C)C)C(N)=O` [GIGSLLAKAAKLGANLL]: the MIC was 25 µM (≈ 40.2 µg/mL) against Escherichia coli and 12.5 µM (≈ 20.1 µg/mL) in the assay on Staphylococcus aureus.
With `CC[C@H](C)[C@H](NC(=O)[C@H](CCCCN)NC(=O)[C@H](CO)NC(=O)[C@H](Cc1c[nH]c2ccccc12)NC(=O)[C@H](CC(C)C)NC(=O)CN)C(=O)N[C@@H](CCCCN)C(=O)N[C@@H](CCC(=O)O)C(=O)N[C@@H](C)C(=O)N[C@@H](C)C(=O)N[C@@H](CCCCN)C(=O)N[C@H](C(=O)N[C@@H](C)C(=O)NCC(=O)N[C@@H](CC(C)C)C(=O)N[C@@H](CCSC)C(=O)N[C@@H](C)C(=O)N[C@@H](CCSC)C(=O)NCC(=O)N[C@@H](Cc1ccccc1)C(=O)N[C@H](C(=O)N[C@@H](CC(N)=O)C(=O)N[C@@H](CC(=O)O)C(=O)N[C@@H](CCSC)C(=O)N[C@H](C(=O)O)C(C)C)C(C)C)[C@@H](C)O` [GLWSKIKEAAKTAGLMAMGFVNDMV], the MIC in assay [3] was determined as 22 µM (≈ 58.7 µg/mL); in assay [1] it was 5.6 µM (≈ 14.9 µg/mL); in assay [4], 22 µM (≈ 58.7 µg/mL); in assay [5], 11 µM (≈ 29.4 µg/mL).
For the compound `NCC(=O)N[C@@H](CCCN=C(N)N)C(=O)N[C@@H](CCCN=C(N)N)C(=O)N1CCC[C@H]1C(=O)N[C@@H](CCCN=C(N)N)C(=O)N1CCC[C@H]1C(=O)N[C@@H](CCCN=C(N)N)C(=O)N1CCC[C@H]1C(=O)N[C@@H](CCCN=C(N)N)C(=O)N1CCC[C@H]1C(=O)N[C@@H](Cc1c[nH]c2ccccc12)C(=O)N[C@@H](Cc1c[nH]c2ccccc12)C(=O)N[C@@H](Cc1c[nH]c2ccccc12)C(=O)N[C@@H](Cc1c[nH]c2ccccc12)C(N)=O` [GRRPRPRPRPWWWW], the values for the minimum inhibitory concentration (MIC) in assay [3], in assay [1] and in assay [2] were 20 µM (≈ 39.8 µg/mL), 20 µM (≈ 39.8 µg/mL) and 40 µM (≈ 79.5 µg/mL), respectively.
As to `CC[C@H](C)[C@H](N)C(=O)NCC(=O)N[C@@H](CCCCN)C(=O)N[C@@H](CC(C)C)C(=O)N[C@H](C(=O)N[C@@H](CCCCN)C(=O)N[C@@H](Cc1c[nH]c2ccccc12)C(=O)N[C@H](C(=O)N[C@H](C(=O)N[C@@H](CCCCN)C(=O)N[C@H](C(=O)N[C@H](C(=O)N[C@@H](CC(N)=O)C(=O)N[C@@H](CCCCN)C(=O)N[C@@H](Cc1ccccc1)C(=O)N[C@H](C(=O)N[C@@H](CCCCN)C(=O)N[C@@H](CCCCN)C(=O)O)[C@@H](C)O)C(C)C)[C@@H](C)O)[C@@H](C)CC)[C@@H](C)CC)C(C)C` [IGKLVKWIIKTVNKFTKK], the figures for the minimal inhibitory concentration (MIC) against Escherichia coli and in the assay with Staphylococcus aureus were 2.1 µM (≈ 4.5 µg/mL) and 3.7 µM (≈ 7.94 µg/mL), respectively.
Take `CC(C)C[C@H](NC(=O)[C@H](CCCCN)NC(=O)[C@H](CC(C)C)NC(=O)[C@H](CC(C)C)NC(=O)[C@H](CCCCN)NC(=O)[C@H](CCCCN)NC(=O)[C@@H]1CCCN1C(=O)[C@H](CC(C)C)NC(=O)[C@H](CCCCN)NC(=O)[C@H](CC(C)C)NC(=O)[C@H](CC(C)C)NC(=O)[C@H](CCCCN)NC(=O)[C@H](CCCCN)NC(=O)[C@@H](N)CC(C)C)C(=O)N[C@@H](C)C(=O)NCC(=O)O` [LKKLLKLPKKLLKLAG]: the MIC in assay [1] is 5 µM (≈ 9.02 µg/mL); in assay [2] it was greater than 40 µM.
Regarding `CC(C)C[C@H](NC(=O)[C@H](CCCCN)NC(=O)[C@H](CC(C)C)NC(=O)[C@H](CC(C)C)NC(=O)[C@H](CCCCN)NC(=O)[C@H](CCCCN)NC(=O)[C@H](CCC(N)=O)NC(=O)[C@H](CC(C)C)NC(=O)[C@H](CCCCN)NC(=O)[C@H](CC(C)C)NC(=O)[C@H](CC(C)C)NC(=O)[C@H](CCCCN)NC(=O)[C@H](CCCCN)NC(=O)[C@@H](N)CC(C)C)C(=O)N[C@@H](C)C(=O)NCC(=O)O` [LKKLLKLQKKLLKLAG], the figures for the minimum inhibitory concentration (MIC) in assay [1] and in assay [2] were 2.5 µM (≈ 4.59 µg/mL) and greater than 40 µM, respectively.
`CSCC[C@H](NC(=O)[C@H](CCCN=C(N)N)NC(=O)[C@H](Cc1c[nH]c2ccccc12)NC(=O)[C@H](C)NC(=O)[C@H](Cc1c[nH]c2ccccc12)NC(=O)[C@H](CCCN=C(N)N)NC(=O)[C@H](Cc1ccc(O)cc1)NC(=O)[C@H](Cc1c[nH]c2ccccc12)NC(=O)[C@H](CCCN=C(N)N)NC(=O)[C@@H](N)CCCN=C(N)N)C(=O)N[C@@H](CCCN=C(N)N)C(N)=O` [RRWYRWAWRMR]: the figures for the MIC in assay [3], in assay [1] and in assay [4] were 4.35 µM (≈ 7.5 µg/mL), 5.8 µM (≈ 9.99 µg/mL) and 2.9 µM (≈ 5 µg/mL), respectively.
As to `CC[C@H](C)[C@H](NC(=O)[C@H](CCCCN)NC(=O)[C@H](CCCCN)NC(=O)CNC(=O)[C@@H](NC(=O)CNC(=O)[C@H](Cc1ccccc1)NC(=O)[C@H](CC(N)=O)NC(=O)CNC(=O)[C@H](CO)NC(=O)[C@H](CC(C)C)NC(=O)[C@@H](NC(=O)[C@@H](N)CO)[C@@H](C)CC)C(C)C)C(=O)N[C@H](C(=O)N[C@H]1CSSC[C@@H](C(=O)O)NC(=O)[C@H](CC(C)C)NC(=O)CNC(=O)[C@H](CO)NC(=O)[C@H](CC(C)C)NC(=O)CNC1=O)C(C)C` [SILSGNFGVGKKIVCGLSGLC], the MIC in the assay on Escherichia coli was 25 µM (≈ 51.3 µg/mL); against Staphylococcus aureus, greater than 100 µM.
For the compound `CC[C@H](C)[C@H](NC(=O)[C@H](Cc1c[nH]c2ccccc12)NC(=O)[C@H](CCCCN)NC(=O)[C@@H](NC(=O)[C@H](CC(C)C)NC(=O)[C@H](CCCCN)NC(=O)CNC(=O)[C@@H](NC(=O)[C@@H](NC(=O)[C@@H](N)CO)[C@@H](C)O)[C@@H](C)CC)C(C)C)C(=O)N[C@H](C(=O)N[C@@H](CCCCN)C(=O)N[C@H](C(=O)N[C@H](C(=O)N[C@@H](CC(N)=O)C(=O)N[C@@H](CCCCN)C(=O)N[C@@H](Cc1ccccc1)C(=O)N[C@H](C(=O)N[C@@H](CCCCN)C(=O)N[C@@H](CCCCN)C(=O)O)[C@@H](C)O)C(C)C)[C@@H](C)O)[C@@H](C)CC` [STIGKLVKWIIKTVNKFTKK], the results for the minimal inhibitory concentration (MIC) against Escherichia coli and against Staphylococcus aureus were 2.4 µM (≈ 5.6 µg/mL) and 4.8 µM (≈ 11.2 µg/mL), respectively.
As to `C[C@H](NC(=O)[C@H](Cc1c[nH]c2ccccc12)NC(=O)[C@H](CCCN=C(N)N)NC(=O)[C@H](Cc1c[nH]c2ccccc12)NC(=O)[C@H](C)NC(=O)[C@H](CCCCN)NC(=O)[C@@H](N)Cc1ccc(O)cc1)C(=O)N[C@@H](Cc1c[nH]c2ccccc12)C(=O)N[C@@H](CCCN=C(N)N)C(=O)N[C@@H](Cc1c[nH]c2ccccc12)C(=O)N[C@@H](CCCCN)C(N)=O` [YKAWRWAWRWK], the results for the minimal inhibitory concentration (MIC) in assay [3], in assay [1] and in assay [4] were 12.2 µM (≈ 20 µg/mL), 4.58 µM (≈ 7.5 µg/mL) and 3.05 µM (≈ 5 µg/mL), respectively.

The values are drawn from DBAASP.
